Test results taken from patent US10253002B2, “Compounds and methods of treating infections” (Neoculi Pty Ltd., priority 2013, dated 2019).
Values after ≈ are worked out from the molar mass of the structure shown. Values joined by “and” are separate entries in the source; they are usually repeats but may differ in a detail not shown here. Identical values can stand only once. Like-named read-outs stand apart in the source and are kept apart here. Marks after values point to notes of the source that are not given here.

Tests used:
[1] = test system: MRSA; assay: Broth microdilution MIC, Example 7 (NCL812 and analogues); type: cell-based, Staphylococcus aureus; details: for activity against MRSA among analogues: MIC testing, two MRSA strains; for MIC: Staphylococcus aureus; for MRSA / MIC: MRSA
Summary of the method: (§1)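 Duplicates per isolate, repeated a third time if >one two-fold dilution apart. MIC50, MIC20 and range calculated per bacterial group.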

[2] = test system: VRE; assay: as above; type: cell-based, Enterococcus spp.; details: for activity against VRE among analogues: MIC testing, two VRE strains; for MIC: Enterococcus; for VRE / MIC: VRE
Summary of the method: as §1

[3] = test system: Escherichia coli; assay: as above; type: cell-based; details: 24 hours; for MIC: Escherichia coli, read-out: MIC (μg/ml) at 24 hours
[4] = test system: Pseudomonas aeruginosa; assay: as above; type: cell-based; details: 24 hours; for MIC: Pseudomonas aeruginosa, 24 h, read-out: MIC (μg/ml) at 24 hours, P. aeruginosa
[5] = Bioassay ranking of the analogues tested; details: M + R (MRSA and VRE combined)
[6] = isolate MRSA 1, 24 hours, 1st and 2nd replicate rows
[7] = isolate MRSA 2, 24 hours, 1st and 2nd replicate rows
[8] = isolate VRE 1, 24 hours, 1st and 2nd replicate rows
[9] = isolate VRE 2, 24 hours, 1st and 2nd replicate rows
[10] = MRSA 1, 24 hours, duplicate lines per compound
[11] = MRSA 2, 24 hours, duplicate lines per compound
[12] = VRE 1, 24 hours, duplicate lines per compound
[13] = VRE 2, 24 hours, duplicate lines per compound
[14] = E. coli, duplicate lines per compound
[15] = P. aeruginosa, duplicate lines per compound
[16] = 24 h, read-out: MIC (μg/ml) at 24 hours, MRSA 1, MRSA 1, 24 hours, duplicate lines per compound
[17] = 24 h, read-out: MIC (μg/ml) at 24 hours, MRSA 2, MRSA 2, 24 hours, duplicate lines per compound
[18] = bioassay ranking, read-out: MRSA
[19] = 24 h, read-out: MIC (μg/ml) at 24 hours, VRE 1, VRE 1, 24 hours, duplicate lines per compound
[20] = 24 h, read-out: MIC (μg/ml) at 24 hours, VRE 2, VRE 2, 24 hours, duplicate lines per compound
[21] = bioassay ranking, read-out: VRE

| MIC (μg/ml) at 24 hours, MRSA 1 [1, 6] | MIC (μg/ml) at 24 hours, MRSA 2 [1, 7] | MIC (μg/ml) at 24 hours, VRE 1 [2, 8] | MIC (μg/ml) at 24 hours, VRE 2 [2, 9] | MIC (μg/ml) at 24 hours, E. coli ([3]; 1st and 2nd replicate rows) | MIC (μg/ml) at 24 hours, P. aeruginosa ([4]; 1st and 2nd replicate rows) | MIC (μg/ml) at 24 hours, MRSA 2 [1, 11] | MIC (μg/ml) at 24 hours, VRE 1 [2, 12] | MIC (μg/ml) at 24 hours, VRE 2 [2, 13] | SMILES | activity against MRSA among analogues [1] | MRSA ([1]; bioassay ranking) | activity against VRE among analogues [2] | VRE ([2]; bioassay ranking) | M + R [5] | also measured |
| --- | --- | --- | --- | --- | --- | --- | --- | --- | --- | --- | --- | --- | --- | --- | --- |
|  |  |  |  |  |  | 8 µg/mL | 4 µg/mL | 2 µg/mL and 4 µg/mL | Cl.N=C(N/N=C/c1ccc(Cl)cc1)N/N=C/c1ccccc1Cl [NCL082] | greatest activity | 7 µg/mL | greatest activity | 3.5 µg/mL | 5.25 µg/mL | MIC (μg/ml) at 24 hours, MRSA 1 [1, 10]: 8 µg/mL and 4 µg/mL; MIC (μg/ml) at 24 hours, E. coli [3, 14]: >128 µg/mL; MIC (μg/ml) at 24 hours, P. aeruginosa [4, 15]: >128 µg/mL |
|  |  |  |  |  |  | 8 µg/mL | 2 µg/mL | 2 µg/mL | Cl.N=C(N/N=C/c1ccc(Cl)cc1)N/N=C/c1ccc(C(F)(F)F)cc1F [NCL078] | greatest activity |  | greatest activity |  | 5.5 µg/mL | MIC [1, 16]: 4 µg/mL; MIC [1, 17]: 16 µg/mL; MIC [1, 18]: 8 µg/mL; MIC [2, 19]: 4 µg/mL; MIC [2, 20]: 4 µg/mL; MIC [2, 21]: 3 µg/mL; MIC [3, 14]: > 128 µg/mL; MIC ([4]; duplicate lines per compound): > 128 µg/mL |
|  |  |  |  |  |  | 4 µg/mL |  |  | Cl.N=C(N/N=C/c1ccc(Cl)cc1)N/N=C/c1ccc(Cl)cc1F [NCL084] | greatest activity |  | greatest activity |  | 3 µg/mL | MIC [1, 16]: 2 µg/mL; MIC [1, 17]: 8 µg/mL; MIC [1, 18]: 4 µg/mL; MIC [2, 19]: 2 µg/mL; MIC [2, 20]: 2 µg/mL; MIC [2, 21]: 2 µg/mL; MIC [3, 14]: > 128 µg/mL; MIC ([4]; duplicate lines per compound): > 128 µg/mL |

Further lines, the compound ahead of its results:

| SMILES | MIC (μg/ml) at 24 hours, MRSA 1 [1, 6] | MIC (μg/ml) at 24 hours, MRSA 2 [1, 7] | MIC (μg/ml) at 24 hours, VRE 1 [2, 8] | MIC (μg/ml) at 24 hours, VRE 2 [2, 9] | MIC (μg/ml) at 24 hours, E. coli ([3]; 1st and 2nd replicate rows) | MIC (μg/ml) at 24 hours, P. aeruginosa ([4]; 1st and 2nd replicate rows) | MIC (μg/ml) at 24 hours, MRSA 2 [1, 11] | MIC (μg/ml) at 24 hours, VRE 1 [2, 12] | MIC (μg/ml) at 24 hours, VRE 2 [2, 13] | activity against MRSA among analogues [1] | MRSA ([1]; bioassay ranking) | activity against VRE among analogues [2] | VRE ([2]; bioassay ranking) | M + R [5] | also measured |
| --- | --- | --- | --- | --- | --- | --- | --- | --- | --- | --- | --- | --- | --- | --- | --- |
| Nc1nc(N/N=C/c2cccc(O)c2)cc(N/N=C/c2cccc(O)c2)n1 [NCL197] |  |  |  |  |  |  |  |  |  | greatest activity | 8 µg/mL | greatest activity | 7 µg/mL | 7.5 µg/mL | MIC (μg/ml) at 24 hours, MRSA 1 ([1]; MRSA 1, 24 hours): 8 µg/mL (≈ 22 µM); MIC (μg/ml) at 24 hours, MRSA 2 ([1]; MRSA 2, 24 hours): 8 µg/mL (≈ 22 µM); MIC (μg/ml) at 24 hours, VRE 1 ([2]; VRE 1, 24 hours): 8 µg/mL and 4 µg/mL; MIC (μg/ml) at 24 hours, VRE 2 ([2]; VRE 2, 24 hours): 8 µg/mL (≈ 22 µM); MIC (μg/ml) at 24 hours, E. coli ([3]; E. coli): >128 µg/mL; MIC (μg/ml) at 24 hours, P. aeruginosa ([4]; P. aeruginosa): >128 µg/mL |
| Cl.N=C(N/N=C/c1cccc(Cl)c1)N/N=C/c1cccc(Cl)c1 [NCL054] | 4 µg/mL and 2 µg/mL | 2 µg/mL and 4 µg/mL | 4 µg/mL | 4 µg/mL | >128 µg/mL | >128 µg/mL |  |  |  | greatest activity | 3 µg/mL | greatest activity | 4 µg/mL | 3.5 µg/mL |  |
| Cc1ccc(/C=N/NC(=N)N/N=C/c2ccc(C)cc2)cc1.Cl [NCL038] | 8** μg/ml | 8** μg/ml | 8** μg/ml and 16** μg/ml | 8** μg/ml | >128 µg/mL | >128 µg/mL |  |  |  | greatest activity | 8 µg/mL | greatest activity | 10 µg/mL | 9 µg/mL |  |
| Cc1ccccc1C=NNC(=N)NN=Cc1ccccc1C.Cl [NCL039] | 32 µg/mL and 64 µg/mL | 32 µg/mL | 32 µg/mL | 8 µg/mL | >128 µg/mL | >128 µg/mL and >188 µg/mL |  |  |  | greatest activity |  | greatest activity | 20 µg/mL | 30 µg/mL |  |
| Cl.N=C(N/N=C/c1ccccc1O)N/N=C/c1ccccc1O [NCL107] |  |  |  |  |  |  | 16 µg/mL | 32 µg/mL | 128 µg/mL | greatest activity | 12 µg/mL | greatest activity |  | 46 µg/mL | MIC (μg/ml) at 24 hours, MRSA 1 [1, 10]: 8 µg/mL; MIC (μg/ml) at 24 hours, E. coli [3, 14]: >128 µg/mL; MIC (μg/ml) at 24 hours, P. aeruginosa [4, 15]: >128 µg/mL |
